Tests used:
IPF patients = details: cited from earlier work
[1] = tested on: patients (periodontal disease, malaria prevention, Pulmonary Capillary Hemangiomatosis, Q fever endocarditis); details: in vivo; cited from earlier work
[2] = tested on: Idiopathic Pulmonary Fibrosis patients; experiment: Response to treatment with only doxycycline (case reports); assay type: in vivo, human
Text: Example 1 Response to Treatment with Only Doxycycline […]

suspected IPF patients = details: human, in vivo
[3] = Case 2, 01 Oct. 2007 (earlier date, baseline)
[4] = Case 2, 09 Jan. 2008, on doxycycline 100 mg twice a day for over 3 months
[5] = Case 4, 10 Jan. 2004 (earlier date, baseline)
[6] = Case 4, 20 Aug. 2004, after doxycycline for over 7 months

CC(C)(S)[C@@H](N)C(=O)O [D-penicillamine]
Benefit of antifibrotic therapy in IPF (IPF patients; in vivo): did not show any significant benefit

Cc1ccc(=O)n(-c2ccccc2)c1 [Pirfinidone]
Tolerability (IPF patients; in vivo): well tolerated

COc1cc2c(c(OC)c1OC)-c1ccc(OC)c(=O)cc1[C@@H](NC(C)=O)CC2 [colchicines]
Benefit of antifibrotic therapy in IPF (IPF patients; in vivo): did not show any significant benefit

C[C@H]1c2cccc(O)c2C(=O)C2=C(O)[C@]3(O)C(=O)C(C(N)=O)=C(O)[C@@H](N(C)C)[C@@H]3[C@@H](O)[C@@H]21 [doxycycline]
Harm in long-term use (ACMP conclusion) [1]: no evidence of harm
Tolerability in Pulmonary Capillary Hemangiomatosis with atypical endotheliomatosis [1]: without any problem
6 minute Walking distance [2, 3]: 980 ft
FVC [2, 3]: 1.66 L
6 minute Walking distance [2, 4]: 1155 ft
FVC [2, 4]: 1.92 L
FEV1 [2, 5]: 1.15
FVC [2, 5]: 2.12
TLCO(%) [2, 5]: 49.4%
TLCO/VA [2, 5]: 102.6
VA [2, 5]: 3.76
FVC ([2]; Case 4, 20 Aug. 2004, after doxycycline 100 mg twice a day for over 7 months): 2.45
FEV1 [2, 6]: 1.51
TLCO(%) [2, 6]: 58.9%
TLCO/VA [2, 6]: 127.9
VA [2, 6]: 3.59
Intolerance or adverse reaction (suspected IPF patients): no intolerance or adverse reaction
Tolerability (suspected IPF patients): well tolerated

doxycycline hyclate [doxycycline hyclate (Periostat)]
Safety in clinical studies [1]: safe

B1: Interferon gamma-1b: a down regulator to TGFβ (protein, UniProt P01579 24-161, looked up)
Interferon gamma: QDPYVKEAENLKKYFNAGHSDVADNGTLFLGILKNWKEESDRKIMQSQIVSFYFKLFKNFKDDQSIQKSVETIKEDMNVKFFNSNKKKRDDFEKLTNYSVTDLNVQRKAIHELIQVMAELSPAAKTGKRKRSQMLFRG
Lung volume, gas exchange and symptoms (IPF patients; one year study): increase
Efficacy in IPF (IPF patients; recent double blind controlled trial): ruled out its efficacy

— US20100130452A1, “Use of Doxycycline in the Treatment of Idiopathic Pulmonary Fibrosis” (NATIONAL RESEARCH DEVELOPMENT CORPORATION, priority 2007, published 2010)
